Patent US9834514B2, “Antibiotic sensitivity-restoring and photosensitive agents” (New Mexico Tech Research Foundation, priority 2015, dated 2017)

Tests used:
[1] = test system: Klebsiella pneumoniae (CRE, ATCC BAA-1705); experiment: Time-dependent colony counts of CRE with compounds and PME; format: cell-based; conditions: PME 0.2 μg/mL, compound 20 μM; FIGS. 48, 49
Procedure: The MICs of PME and compounds 8-11 were determined against Klebsiella pneumoniae (CRE, ATCC BAA-1705). […] […] At specific time points, the samples were taken and diluted ten-fold in media. Ten microliters of each dilution was then drip-streaked onto an agar plate and incubated overnight at 37° C. Colony counts were then performed and the CFU/mL were calculated.

VRE = experiment: Resensitization to antibiotics (log reduction, TABLE 29); format: cell-based, Enterococcus faecalis
Procedure: In a 96-well microtiter plate, two-fold dilutions were made of each drug (starting with 100 μM) in 100 μL of a cell suspension in TSB. The resulting samples were incubated overnight at 37° C. on a rotary shaking incubator at 100 rpm. The samples were then visually inspected for turbidity. A 20% well volume of MTT reagent (5 mg/mL) was subsequently added, and the samples were incubated for about 20 minutes.

P. aeruginosa = experiment: as above; format: cell-based; conditions: compound 20 μM; PME (0.1 μg/mL)
[2] = test system: MRSA isolates (S. aureus ATCC 33591, BAA-44, BAA-1707, BAA-1717, BAA-1720, BAA-1747, BAA-1754, BAA-1761, BAA-1763, BAA-1764, BAA-1766); experiment: Combination effects of compounds 7-11 and antibiotics on MRSA isolates (turbidity); format: cell-based
Description: Inhibition resulting from co-treatment of a broth suspension with a compound of the invention and an antibiotic was compared to broth suspensions subjected to each individual treatment. A visual observation of inhibition with the unaided eye upon co-treatment of the broth suspensions, based on turbidity, was considered synergistic.
Exceptions to reading complete inhibition of growth included Gram-positive cocci. For Gram-positive cocci, trailing growth was observed. For these species, the MICs were read at the first spot where trailing was observed, and tiny buttons of growth were ignored. […]
Two-fold dilutions of the antibiotics were prepared in a liquid growth medium dispensed in test tubes. […] The antibiotic-containing tubes were inoculated with a standard bacterial suspension of 5×10^5 CFU/mL. Following an overnight incubation (16-20 hrs) at 35±2° C. under ambient air, the tubes were examined for visible bacterial growth based on turbidity. The lowest concentration of antibiotic that prevented growth was determined to be the MIC. An incubation time of 24 hrs was used to determine the MICs of oxacillin and vancomycin.

With Brc1ccc(/N=N/c2c[nH]c3ccccc23)cc1 [Compound 8] the “CRE colony populations on simultaneous treatment with PME” value [1] was “reduced the CRE colony populations to sterility”, the “Log Reduction” value (VRE; compound 7.5 μM, Norfloxacin ([…])) was 4-5 and the “Log Reduction” value (P. aeruginosa) was 4. The “combination effect with Gentamycin” value ([2]; MRSA ATCC 33591) was “No Synergy”, the “combination effect with Norfloxacin” value ([2]; MRSA ATCC 33591) was “No Synergy” and the “combination effect with Oxacillin” value ([2]; MRSA ATCC 33591) was “No Synergy”. For the same molecule, the “combination effect with Tetracycline” value ([2]; MRSA ATCC 33591) was “No Synergy”, the “combination effect with Vancomycin” value ([2]; MRSA ATCC 33591) was “Susceptible” and the “combination effect with Norfloxacin” value ([2]; MRSA ATCC BAA-44) was “No Synergy”. For the same molecule, the “combination effect with Oxacillin” value ([2]; MRSA ATCC BAA-44) was “No Synergy”, the “combination effect with Tetracycline” value ([2]; MRSA ATCC BAA-44) was “Susceptible” and the “combination effect with Vancomycin” value ([2]; MRSA ATCC BAA-44) was “Susceptible”. For the same molecule, the “combination effect with Gentamycin” value ([2]; MRSA ATCC BAA-1707) was “Susceptible”, the “combination effect with Norfloxacin” value ([2]; MRSA ATCC BAA-1707) was “Susceptible” and the “combination effect with Oxacillin” value ([2]; MRSA ATCC BAA-1707) was “Susceptible”. For the same molecule, the “combination effect with Tetracycline” value ([2]; MRSA ATCC BAA-1707) was “No Synergy”, the “combination effect with Vancomycin” value ([2]; MRSA ATCC BAA-1707) was “Susceptible” and the “combination effect with Gentamycin” value ([2]; MRSA ATCC BAA-1717) was “Susceptible”. The “combination effect with Norfloxacin” value ([2]; MRSA ATCC BAA-1717) was “Susceptible”, the “combination effect with Oxacillin” value ([2]; MRSA ATCC BAA-1717) was “Synergy” and the “combination effect with Tetracycline” value ([2]; MRSA ATCC BAA-1717) was “Susceptible”. The “combination effect with Vancomycin” value ([2]; MRSA ATCC BAA-1717) was “Susceptible”, the “combination effect with Gentamycin” value ([2]; MRSA ATCC BAA-1720) was “Susceptible” and the “combination effect with Norfloxacin” value ([2]; MRSA ATCC BAA-1720) was “No Synergy”. For the same molecule, the “combination effect with Oxacillin” value ([2]; MRSA ATCC BAA-1720) was “Synergy”, the “combination effect with Tetracycline” value ([2]; MRSA ATCC BAA-1720) was “Susceptible” and the “combination effect with Vancomycin” value ([2]; MRSA ATCC BAA-1720) was “Susceptible”. For the same molecule, the “combination effect with Gentamycin” value ([2]; MRSA ATCC BAA-1747) was “Susceptible”, the “combination effect with Norfloxacin” value ([2]; MRSA ATCC BAA-1747) was “Susceptible” and the “combination effect with Oxacillin” value ([2]; MRSA ATCC BAA-1747) was “Susceptible”. For the same molecule, the “combination effect with Tetracycline” value ([2]; MRSA ATCC BAA-1747) was “Susceptible”, the “combination effect with Vancomycin” value ([2]; MRSA ATCC BAA-1747) was “Susceptible” and the “combination effect with Gentamycin” value ([2]; MRSA ATCC BAA-1754) was “Susceptible”. For the same molecule, the “combination effect with Norfloxacin” value ([2]; MRSA ATCC BAA-1754) was “Susceptible”, the “combination effect with Oxacillin” value ([2]; MRSA ATCC BAA-1754) was “Synergy” and the “combination effect with Tetracycline” value ([2]; MRSA ATCC BAA-1754) was “Susceptible”. For the same molecule, the “combination effect with Vancomycin” value ([2]; MRSA ATCC BAA-1754) was “Susceptible”, the “combination effect with Gentamycin” value ([2]; MRSA ATCC BAA-1761) was “Susceptible” and the “combination effect with Norfloxacin” value ([2]; MRSA ATCC BAA-1761) was “No Synergy”. The “combination effect with Oxacillin” value ([2]; MRSA ATCC BAA-1761) was “Susceptible”, the “combination effect with Tetracycline” value ([2]; MRSA ATCC BAA-1761) was “Susceptible” and the “combination effect with Vancomycin” value ([2]; MRSA ATCC BAA-1761) was “Susceptible”. For the same molecule, the “combination effect with Gentamycin” value ([2]; MRSA ATCC BAA-1763) was “Susceptible”, the “combination effect with Norfloxacin” value ([2]; MRSA ATCC BAA-1763) was “No Synergy” and the “combination effect with Oxacillin” value ([2]; MRSA ATCC BAA-1763) was “Synergy”. For the same molecule, the “combination effect with Tetracycline” value ([2]; MRSA ATCC BAA-1763) was “Susceptible”, the “combination effect with Vancomycin” value ([2]; MRSA ATCC BAA-1763) was “Susceptible” and the “combination effect with Gentamycin” value ([2]; MRSA ATCC BAA-1764) was “Susceptible”. The “combination effect with Norfloxacin” value ([2]; MRSA ATCC BAA-1764) was “Susceptible”, the “combination effect with Oxacillin” value ([2]; MRSA ATCC BAA-1764) was “Synergy” and the “combination effect with Tetracycline” value ([2]; MRSA ATCC BAA-1764) was “Susceptible”. The “combination effect with Vancomycin” value ([2]; MRSA ATCC BAA-1764) was “Susceptible”, the “combination effect with Gentamycin” value ([2]; MRSA ATCC BAA-1766) was “Susceptible” and the “combination effect with Norfloxacin” value ([2]; MRSA ATCC BAA-1766) was “Susceptible”. The “combination effect with Oxacillin” value ([2]; MRSA ATCC BAA-1766) was “Synergy”, the “combination effect with Tetracycline” value ([2]; MRSA ATCC BAA-1766) was “Susceptible” and the “combination effect with Vancomycin” value ([2]; MRSA ATCC BAA-1766) was “Susceptible”.
Clc1ccc(/N=N/c2c[nH]c3ccccc23)cc1 [Compound 9] was tested, and the “CRE colony populations on simultaneous treatment with PME” value [1] was “reduced the CRE colony populations to sterility”, the “Log Reduction” value (VRE; compound 75 μM, Norfloxacin ([…])) was 4 and the “Log Reduction” value (VRE; compound 75 μM, Tetracycline (1.5 μg/mL)) was 3-4. For the same molecule, the “Log Reduction” value (P. aeruginosa) was 2, the “combination effect with Gentamycin” value ([2]; MRSA ATCC 33591) was “No Synergy” and the “combination effect with Norfloxacin” value ([2]; MRSA ATCC 33591) was “No Synergy”. The “combination effect with Oxacillin” value ([2]; MRSA ATCC 33591) was “No Synergy”, the “combination effect with Tetracycline” value ([2]; MRSA ATCC 33591) was “No Synergy” and the “combination effect with Vancomycin” value ([2]; MRSA ATCC 33591) was “Susceptible”. For the same molecule, the “combination effect with Norfloxacin” value ([2]; MRSA ATCC BAA-44) was “No Synergy”, the “combination effect with Oxacillin” value ([2]; MRSA ATCC BAA-44) was “No Synergy” and the “combination effect with Tetracycline” value ([2]; MRSA ATCC BAA-44) was “Susceptible”. The “combination effect with Vancomycin” value ([2]; MRSA ATCC BAA-44) was “Susceptible”, the “combination effect with Gentamycin” value ([2]; MRSA ATCC BAA-1707) was “Susceptible” and the “combination effect with Norfloxacin” value ([2]; MRSA ATCC BAA-1707) was “Susceptible”. For the same molecule, the “combination effect with Oxacillin” value ([2]; MRSA ATCC BAA-1707) was “Susceptible”, the “combination effect with Tetracycline” value ([2]; MRSA ATCC BAA-1707) was “No Synergy” and the “combination effect with Vancomycin” value ([2]; MRSA ATCC BAA-1707) was “Susceptible”. The “combination effect with Gentamycin” value ([2]; MRSA ATCC BAA-1717) was “Susceptible”, the “combination effect with Norfloxacin” value ([2]; MRSA ATCC BAA-1717) was “Susceptible” and the “combination effect with Oxacillin” value ([2]; MRSA ATCC BAA-1717) was “Synergy”. The “combination effect with Tetracycline” value ([2]; MRSA ATCC BAA-1717) was “Susceptible”, the “combination effect with Vancomycin” value ([2]; MRSA ATCC BAA-1717) was “Susceptible” and the “combination effect with Gentamycin” value ([2]; MRSA ATCC BAA-1720) was “Susceptible”. For the same molecule, the “combination effect with Norfloxacin” value ([2]; MRSA ATCC BAA-1720) was “No Synergy”, the “combination effect with Oxacillin” value ([2]; MRSA ATCC BAA-1720) was “Synergy” and the “combination effect with Tetracycline” value ([2]; MRSA ATCC BAA-1720) was “Susceptible”. The “combination effect with Vancomycin” value ([2]; MRSA ATCC BAA-1720) was “Susceptible”, the “combination effect with Gentamycin” value ([2]; MRSA ATCC BAA-1747) was “Susceptible” and the “combination effect with Norfloxacin” value ([2]; MRSA ATCC BAA-1747) was “Susceptible”. For the same molecule, the “combination effect with Oxacillin” value ([2]; MRSA ATCC BAA-1747) was “Susceptible”, the “combination effect with Tetracycline” value ([2]; MRSA ATCC BAA-1747) was “Susceptible” and the “combination effect with Vancomycin” value ([2]; MRSA ATCC BAA-1747) was “Susceptible”. The “combination effect with Gentamycin” value ([2]; MRSA ATCC BAA-1754) was “Susceptible”, the “combination effect with Norfloxacin” value ([2]; MRSA ATCC BAA-1754) was “Susceptible” and the “combination effect with Oxacillin” value ([2]; MRSA ATCC BAA-1754) was “No Synergy”. The “combination effect with Tetracycline” value ([2]; MRSA ATCC BAA-1754) was “Susceptible”, the “combination effect with Vancomycin” value ([2]; MRSA ATCC BAA-1754) was “Susceptible” and the “combination effect with Gentamycin” value ([2]; MRSA ATCC BAA-1761) was “Susceptible”. The “combination effect with Norfloxacin” value ([2]; MRSA ATCC BAA-1761) was “No Synergy”, the “combination effect with Oxacillin” value ([2]; MRSA ATCC BAA-1761) was “Susceptible” and the “combination effect with Tetracycline” value ([2]; MRSA ATCC BAA-1761) was “Susceptible”. The “combination effect with Vancomycin” value ([2]; MRSA ATCC BAA-1761) was “Susceptible”, the “combination effect with Gentamycin” value ([2]; MRSA ATCC BAA-1763) was “Susceptible” and the “combination effect with Norfloxacin” value ([2]; MRSA ATCC BAA-1763) was “No Synergy”. For the same molecule, the “combination effect with Oxacillin” value ([2]; MRSA ATCC BAA-1763) was “Synergy”, the “combination effect with Tetracycline” value ([2]; MRSA ATCC BAA-1763) was “Susceptible” and the “combination effect with Vancomycin” value ([2]; MRSA ATCC BAA-1763) was “Susceptible”. For the same molecule, the “combination effect with Gentamycin” value ([2]; MRSA ATCC BAA-1764) was “Susceptible”, the “combination effect with Norfloxacin” value ([2]; MRSA ATCC BAA-1764) was “Susceptible” and the “combination effect with Oxacillin” value ([2]; MRSA ATCC BAA-1764) was “Synergy”. For the same molecule, the “combination effect with Tetracycline” value ([2]; MRSA ATCC BAA-1764) was “Susceptible”, the “combination effect with Vancomycin” value ([2]; MRSA ATCC BAA-1764) was “Susceptible” and the “combination effect with Gentamycin” value ([2]; MRSA ATCC BAA-1766) was “Susceptible”. For the same molecule, the “combination effect with Norfloxacin” value ([2]; MRSA ATCC BAA-1766) was “Susceptible”, the “combination effect with Oxacillin” value ([2]; MRSA ATCC BAA-1766) was “Synergy” and the “combination effect with Tetracycline” value ([2]; MRSA ATCC BAA-1766) was “Susceptible”. For the same molecule, the “combination effect with Vancomycin” value ([2]; MRSA ATCC BAA-1766) was “Susceptible”.
